Measured values: patent publication US7960349B2 (Bristol-Myers Squibb Company, priority 2006, dated 2011)
Where a SMILES comes first, the peptide text is derived from it. [ ]: non-standard residue; d: D form. The star is where a group is joined. ξ: configuration not given here. Ala(6-(2-MePh)pyridin-3-yl) = Cc1ccccc1-c1ccc(C[C@H](N)C(=O)O)cn1; Phe(4-(2-Et-4-HO-Ph)) = CCc1cc(O)ccc1-c1ccc(C[C@H](N)C(=O)O)cc1; ξαMePhe(2-F) = CC(N)(Cc1ccccc1F)C(=O)O; ξαMeP = CC1(C(=O)O)CCCN1; Moc = COC(=O)*

Experiments:
Human GLP-1 Receptor = molecular target: T1, Human GLP-1 Receptor (Homo sapiens, UniProt P43220); test: Cyclic AMP determination in CHO cells expressing human GLP-1 receptor; assay type: cell-based
T1 construct: Full-length human glucagon-like peptide 1 receptor was stably expressed in CHO-K1 cells; expressed in transfected cells; host or cells: CHO-K1 (clone CHO-GLP1R-19)
T1 sequence (P43220 24-463): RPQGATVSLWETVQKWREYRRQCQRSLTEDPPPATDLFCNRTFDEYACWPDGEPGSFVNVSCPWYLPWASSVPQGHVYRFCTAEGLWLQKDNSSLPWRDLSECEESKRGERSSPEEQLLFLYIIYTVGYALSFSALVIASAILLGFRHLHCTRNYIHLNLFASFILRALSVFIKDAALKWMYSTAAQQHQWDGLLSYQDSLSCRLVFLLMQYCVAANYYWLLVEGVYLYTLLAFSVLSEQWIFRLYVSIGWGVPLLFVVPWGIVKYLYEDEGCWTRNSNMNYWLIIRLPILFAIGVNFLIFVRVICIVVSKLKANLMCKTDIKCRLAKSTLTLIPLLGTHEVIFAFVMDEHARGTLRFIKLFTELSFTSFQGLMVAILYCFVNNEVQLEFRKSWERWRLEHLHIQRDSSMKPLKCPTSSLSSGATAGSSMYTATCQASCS
Procedure: (§1) CHO-GLP-1R-19 cells (20,000 in 100 μl of media) were plated into each well of a 96-well tissue culture microtiter plate and incubated overnight in a 5% CO2 atmosphere at 37° C. On the day of the assay, cells were washed once with 100 μl of phosphate-buffered saline (PBS). A Biomek 2000 was used to serially dilute all peptides prior to beginning the assay. Serial dilutions were carried out in 100% DMSO.
(§2) 50 μl of each cAMP standard was added by hand and 70 μl of mix reagent (Amersham cAMP SPA kit) was added using the multidrop. […] This standard curve was used to convert CPM to pmol of cAMP.
(§3) Cell plates and peptide plates were loaded onto the Platemate. The media was aspirated from the wells and discarded. 100 uL per well of the peptide/buffer mixture were then added from the peptide plates to initiate the assay. After 30 min. of incubation the peptide/buffer was removed and 50 uL of the lysis reagent 1 solution was added per well. The plate was kept for one hour at RT or overnight if refrigerated and sealed.
(§4) Dose dependence for Compounds was determined at half-log concentrations in duplicate. […] A standard curve was determined using known amounts of cyclic AMP. […] The data were analyzed by nonlinear regression curve fitting (4 parameter sigmoidal dose-response curve) to determine the EC50 of the compounds.

Mouse GLP-1 Receptor = molecular target: T2, Mouse GLP-1 Receptor (Mus musculus, UniProt O35659); test: Stimulation of cAMP synthesis in CHO cells expressing mouse GLP-1 receptor; assay type: cell-based
T2 construct: expressed in transfected cells; host or cells: CHO cells
T2 sequence (O35659 22-463): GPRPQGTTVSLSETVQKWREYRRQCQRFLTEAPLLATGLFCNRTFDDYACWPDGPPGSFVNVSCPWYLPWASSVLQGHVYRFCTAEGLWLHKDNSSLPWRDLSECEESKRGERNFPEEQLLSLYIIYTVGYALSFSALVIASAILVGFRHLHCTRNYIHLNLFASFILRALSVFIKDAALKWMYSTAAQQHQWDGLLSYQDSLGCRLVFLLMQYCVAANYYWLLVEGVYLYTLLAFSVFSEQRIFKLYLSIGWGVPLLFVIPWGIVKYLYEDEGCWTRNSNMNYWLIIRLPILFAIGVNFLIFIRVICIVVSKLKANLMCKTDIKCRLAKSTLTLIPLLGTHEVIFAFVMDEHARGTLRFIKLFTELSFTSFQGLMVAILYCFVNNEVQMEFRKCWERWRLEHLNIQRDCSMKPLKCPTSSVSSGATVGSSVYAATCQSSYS
Procedure: as §1, §2, §3, §4

ob/ob mice = test: Intraperitoneal glucose tolerance test (ipGTT) in ob/ob mice after sc injection; assay type: in vivo, mouse
Procedure: (§5) Peptides were dissolved in an appropriate vehicle at a concentration in nmol/ml equivalent to the dose that was to be administered in nmol/kg so that each mouse would receive the same volume/weight of dosing solution. Male C57BL/6-ob/ob mice (10 weeks old) were randomized into groups of 6 mice per group based on fed plasma glucose and body weight. After an overnight fast, mice were weighed and placed in the experimental lab. After 30 min in the environment, the mice were bled via tail tip at −30 min and immediately injected subcutaneously (sc) with vehicle or the peptide dissolved in vehicle (0.1 ml solution/100 g body weight). At time 0 the mice were bled and then injected intraperitoneally with 50% glucose (2 g/kg) to initiate the intraperitoneal glucose tolerance test (ipGTT). The mice were bled 30, 60, 120 and 180 min after the glucose injection. Blood samples were drawn into potassium EDTA, placed on ice during the study and subsequently centrifuged for 10 min at 3000 rpm at 4° C. Plasma samples were diluted 11-fold for glucose analysis in the Cobas System. Another 5 μl plasma sample was diluted 5-fold with 20 μl of Sample Diluent (Insulin ELISA assay kit, Crystal Chem. Inc.) and stored at −20° C. for subsequent analysis using the Ultra Sensitive Mouse Insulin ELISA kit (Crystal Chem Inc.).

[1] = Exposure during ipGTT in ob/ob mice; assay type: in vivo, mouse; conditions: sc injection
Procedure: as §5

[2] = Dog pharmacokinetic study; assay type: in vivo
Procedure: The pharmacokinetic parameters of the Compounds of SEQ ID NO: 9, 118, 151 and 158 were determined in male beagle dogs (n=3-4, 14±1 kg). Following an overnight fast, each animal received the Compounds of SEQ ID NO: 9, 118, 151 and 158 either as an intravenous bolus via femoral vein (67 μg/kg) or by subcutaneous injection given at near the shoulder blades (67 μg/kg). Each animal received both intravenous and subcutaneous doses with a one-week washout between doses following a crossover design. The dosing vehicle for both routes of administration was propylene glycol:pH 7.4 phosphate buffer (50:50) or 0.2 M Tris (pH 8.0). Serial blood samples were collected in EDTA-containing microcentrifuge tubes at predose, 0.083, 0.25, 0.5, 0.75, 1, 2, 4, 6, 8, 24, and 30 hours post-dose after intravenous administration; at predose, 0.25, 0.5, 0.75, 1, 2, 4, 6, 8, 24, and 30 hours post-dose after subcutaneous administration. Approximately 0.3 mL of blood was collected at each time point. Blood samples were immediately centrifuged at 4° C. The obtained plasma was frozen with dry ice and stored at −20° C. Plasma drug levels were determined using the LC-MS/MS assay described below.
Plasma samples from the in vivo dog study were prepared for analysis by precipitating plasma proteins with two volumes of AcCN containing an internal standard. The samples were vortex mixed and the precipitated proteins were removed by centrifugation. The resulting supernatants were transferred to a 96-well plate and 10 μL were injected for TFC-LC/MS/MS analysis.
The TFC-HPLC system (Cohesive TX-1 Flux, Aria 2300 System) consisted of a loading pump, an eluting pump, and a CTC PAL autosampler (Cohesive Technologies, Franklin, Mass.). The columns used were Phenomenex Synergi Fusion-RP (C18, 2.0×50 mm, 4μ) (Phenomenex, Torrance, Calif.) as the analytical column and Turbo-Flow (TF) HTLC Cyclone column (0.5×50 mm) (Cohesive Technologies, Franklin, Mass.) as the extraction column for on-line sample processing. The mobile phase A consisted of 10 mM ammonium formate and 0.1% formic acid in water and mobile phase B consisted of 0.1% formic acid in AcCN. Turbo-Flow Chromatography was used to obtain a cleaner sample. A rapid gradient elution was used for analyte separation. The samples were injected onto the Turbo-Flow HTLC Cyclone column and analytes were separated from biological fluid components with using 100% H2O at 1.5 mL/min. The TF column was back flushed and analytes were back eluted from the TF to HPLC analytical column using a ramp to 60% B over 2 min and held there for 30 seconds at 0.3 mL/min to separate and to elute the analytes from the HPLC column into the mass spectrometer. Both columns were washed for an additional minute and then both columns were re-equilibrated at initial conditions.
The HPLC was interfaced to a Sciex API 4000 mass spectrometer (Applied Biosystems, Foster City, Calif.) and was equipped with a TurboIonspray ionization source. Ultra high purity nitrogen was used as the nebulizing and turbo-gas. The temperature of turbo-gas was set at 300° C. and the interface heater was set at 60° C. Selected Reaction Monitoring (SRM) was used for data acquisition. Multiple charged ion species, i.e. (M+2H)^2+ for Compound of SEQ ID NO: 158 were selected in Q1 and were collisionally dissociated with high purity nitrogen at a pressure of 3.5×10^−3 torr in Q2 to form specific product ions which were subsequently monitored in Q3. The ion transitions and voltages are summarized below (Table 4).
The standard curve concentrations, ranging from 1 to 1000 nM, were analyzed in duplicate. The curves were fitted with a linear regression weighted by reciprocal concentration […]. Quality control (QC) samples, prepared in blank matrix at the same concentrations as the standards were also analyzed in each analytical set. […]

EC50 (Human GLP-1 Receptor): 0.018 nM
Emax (Human GLP-1 Receptor; CHO, percent of maximal GLP-1 stimulated activity, human GLP-1 receptor): 101 ± 6.7%
Mean Hill (Human GLP-1 Receptor; human GLP-1 receptor): 1.5
Mean Hill (Mouse GLP-1 Receptor): 1.5
Emax (Mouse GLP-1 Receptor; CHO, percent of maximal GLP-1 stimulated activity): 101 ± 7.2%
Exposure/dose during ipGTT in ob/ob mice [1]: 11 nM * h/nmol/kg
Vd ([2]; dog, plasma, 67 ug/kg, male beagle dogs, intravenous 67 μg/kg, read-out: Vss): 0.15 ± 0.02 L/kg
Exposure in dogs (sc@67 μg/kg) ([2]; sc 67 μg/kg, vehicle 0.2 M Tris buffer (pH 8.0)): 1.467 µM·h
Compound: CCc1cc(O)ccc1-c1ccc(C[C@H](NC(=O)[C@H](CC(=O)O)NC(=O)[C@H](CO)NC(=O)[C@@H](NC(=O)C(C)(Cc2ccccc2F)NC(=O)[C@@H](NC(=O)CNC(=O)[C@H](CCC(=O)O)NC(=O)C2(C)CCCN2C(=O)[C@H](Cc2c[nH]cn2)NC(=O)OC)[C@@H](C)O)[C@@H](C)O)C(=O)N[C@@H](Cc2ccc(-c3ccccc3C)nc2)C(N)=O)cc1 (some centres unmarked) [SEQ ID NO: 158] (Moc-H[ξαMeP]EGT[ξαMePhe(2-F)]TSD[Phe(4-(2-Et-4-HO-Ph))][Ala(6-(2-MePh)pyridin-3-yl)]-NH2)
plasma glucose AUC decreased (ob/ob mice; 10 nmol/kg sc, ipGTT ob/ob mice): 66%
Potency in ob/ob mice ED50 (ob/ob mice; sc injection, plasma glucose AUC in ipGTT): ED50 = 2 nmoles/kg
effect on postprandial plasma glucose (ob/ob mice; sc, ipGTT ob/ob mice, 0 to 180 or 210 min): statistically significant decrease
